According to US7759317B2, “Analgesic and anti-inflammatory compositions and methods with flavonoid glycoside-type compounds” (BMB Patent Holding Corporation, priority 2006, dated 2010):
Several values for one entry are separate records, joined by “and”; a condition that tells them apart may be missing. Identical values can stand only once.

Legend:
[1] = tested on: capsaicin-treated hindpaw; experiment: Analgesic Bioassay Protocol: rat hindpaw withdrawal latency to radiant heat after capsaicin sensitisation; assay type: in vivo, Sprague-Dawley rats; details: n=5
Procedure: A rat hindpaw assay was used to determine the therapeutic effectiveness of various extracts/compounds as analgesics in the present invention. Sprague-Dawley rats (225-250 g, male) were anesthetized with urethane and placed on their sides on a disposable Chux pad. Both hindpaws for each rat were blackened with India ink which was allowed to dry for 10 minutes. An ELH projector lamp calibrated to a standard mW/cm was used as a pain stimulus and was condensed into an area of 5×15 mm on each hindpaw and placed perpendicular to, and 72 mm from, each hindpaw. Multiple baseline hindpaw withdrawal latency times were recorded (in seconds) for each medial and each lateral surface of each hindpaw. Subsequently, 100 μl of 1 μmolar capsaicin was applied with a pipette to cover one hindpaw of each animal and allowed to dry for 10 minutes, rendering the capsaicin-treated hindpaw hypersensitive to pain stimulus relative to the non-capsaicin treated hindpaw (and thereby decreasing the withdrawal latency period for the capsaicin-treated hindpaw relative to the non-treated hindpaw). Both hindpaws were then re-blackened with India ink which was allowed to dry for 10 minutes, and hindpaw withdrawal latencies were recorded for both the capsaicin-treated and untreated hindpaws on both the medial and lateral aspects of both hindpaws at 20, 25 and 30 minutes. […] By contrast, only minor drops in the withdrawal latency periods of the untreated hindpaws was seen, and the effect that was observed is believed to be due to the central mechanism effect of capsaicin-treatment on the other hindpaw. To determine the analgesic properties of each fraction, 100 μl of each fraction were applied to the capsaicin-treated hindpaw by pipette and permitted to dry (the untreated hindpaw was not treated with the fraction). Hindpaw withdrawal latencies were then recorded at 5, 20 and 30 minutes for both the capsaicin/fraction-treated hindpaw and the untreated hindpaw. An increase in the hindpaw withdrawal time was indicative of an analgesic effect by the applied fraction.

[2] = tested on: mouse air pouch; experiment: Inflammation Bioassay Protocol: mouse air pouch assay, carrageenan-induced, white blood cell count in exudate; assay type: in vivo, mice
Procedure: A mouse air pouch assay was used to determine the therapeutic effectiveness of various extracts/compounds as anti-inflammatories in the present invention.
To induce air pouches, 10-15 week old mice were injected subcutaneously on the back with 3 ml of air.
On day 2, the pouches were reinflated with 1.5 m. of air.
On day 6, inflammation was induced by injecting 1 ml of a suspension of carrageenan (2% weight/volume in calcium-free and magnesium-free phosphate buffered saline (PBS) solution) into the air pouch.
100 μL of solution including test compounds were injected with the carrageenan (additional 100 μL of PBS were injected into the controls).
After 4 hours, the mice were sacrificed by including C02 narcosis, the pouches were flushed with 2 ml of PBS, and exudates were harvested.
Exudates were diluted 1:1 with 0.015% methylene blue in PBS.
White blood cells were counted in a standard hemocytometer chamber (American Optical, Buffalo, N.Y.).

[3] = white blood cells in air pouch exudate, individual mice, 4 hours after carrageenan

O=c1cc(-c2ccc(O)c(O)c2)oc2cc(OC3OC(COC4OCC(O)(CO)C4O)C(O)C(O)C3O)cc(O)c12 [Compound 580, luteolin 7-(6″-β-D-apiofuranosyl)-β-D-glucopyranoside]
Avg All Cap ([1]; average of all post-capsaicin latencies, before test substance): 6.3 s
Avg Ext 5 ([1]; latency 5 minutes after application to capsaicin-treated hindpaw, amount (mg)): 13.7 s
Avg Ext 20 ([1]; latency 20 minutes after application to capsaicin-treated hindpaw, amount (mg)): 9.6 s
Avg Cap 20 ([1]; latency 20 minutes after capsaicin, before test substance): 5.8 s
Avg Cap 25 ([1]; latency 25 minutes after capsaicin, before test substance): 7.2 s
Avg Ext 30 ([1]; latency 30 minutes after application to capsaicin-treated hindpaw, amount (mg)): 9.4 s
Avg Cap 30 ([1]; latency 30 minutes after capsaicin, before test substance): 6 s
Avg Baseline ([1]; withdrawal latency before capsaicin and before test substance): 9.3 s
Average Cells (10^6/ml) ([2]; mean of five treated mice, control mice 2.67): 1.00 10^6/ml
anti-inflammatory effects, comparison with reference drugs ([2]; result in words): comparable to 0.5-1.0 mg/kg/week of chronic methotrexate, or 1.5 mg/kg acute dose of dexamethasone
Cells (10^6/ml) [2, 3]: 0.75 10^6/ml and 1.17 10^6/ml and 0.72 10^6/ml and 1.16 10^6/ml and 1.22 10^6/ml
Cells/ml [2, 3]: 7.50E+05 Cells/ml and 1.17E+06 Cells/ml and 7.20E+05 Cells/ml and 1.16E+06 Cells/ml and 1.22E+06 Cells/ml
Average Count ([2]; white blood cells, average of 4 hemocytometer chambers, individual mice, 100 μL test solution with carrageenan, exudate after 4 hours): 37.50 and 58.50 and 24.00 and 38.75 and 40.50
